From PMC10049354, “Anti-Inflammatory Effects and Photo- and Neuro-Protective Properties of BIO203, a New Amide Conjugate of Norbixin, in Development for the Treatment of Age-Related Macular Degeneration (AMD)” (International Journal of Molecular Sciences, 2023)

Experiments:
[1] = system: albino rats exposed to blue-light-induced photoreceptor degeneration; parameters: method as in PMID 27992460; conditions: IP; cited from earlier work
NF-κB = system: NF-κB; parameters: method as in PMID 34544906; conditions: cited from earlier work
IL-6 [2] = system: IL-6; parameters: method as in PMID 34544906; conditions: norbixin at 20 mM (so in the source); cited from earlier work
IL-8 = IL-8 mRNA expression induced by A2E (quantitative RT-PCR); type: cell-based, pig; conditions: BIO203 20 mM (so in the source); A2E 20 μM; porcine RPE cells; p < 0.001
Method: (§1) RPE cells were obtained from pig eyes, as previously described. RPE cells were seeded on a 96-well plate at a density of 1.5 × 10^5 cells/cm^2 in DMEM 2% FCS. BIO201, BIO203, or its pure enantiomers were added in increasing concentrations to the culture medium 48 h before illumination. A2E was added to the medium at a final concentration of 30 μM, and 19 h later, blue-light illumination was performed for 50 min using a 96 blue-led device (Durand, St Clair de la Tour, France) emitting at 470 nm (1440 mcd, 8.6 mA). Just before illumination, the culture medium was replaced by a modified DMEM without any photosensitizer and with 2% FCS. Twenty-four hours after blue-light irradiation, all cell nuclei were stained with Hoechst 33342, and nuclei of dead cells with ethidium homodimer 2, fixed with paraformaldehyde (4% in PBS, 10 min) and 9 pictures per well were captured using a fluorescence microscope (Nikon TiE) equipped with a CoolSNAP HQ2 camera and driven by Metamorph Premier On-Line program. Quantification of live cells was performed using Metamorph Premier Off-Line and a homemade program by subtraction of dead cells from all cells. For cytokines mRNA analysis, RPE cells were seeded in 24-well plates and left untreated or treated with A2E or BIO203 alone or A2E plus BIO203. […]

Abca4−/− Rdh8−/− mice [3] = test: Photoreceptor nuclear layer thickness after 6 months of oral complementation in Abca4−/− Rdh8−/− mice; type: in vivo, mouse; conditions: HD pellets, 17-month-old mice
Method: At the end of the measurement period on Day 7, rats were euthanized by an intraperitoneal injection of pentobarbital. Immediately after euthanasia, both eyeballs were sampled, fixed in Davidson’s solution, and processed for histology. Sections (5 to 7 µm thick) were performed along the vertical meridian and stained with Haematoxylin/Eosin stain. The vertical meridian included the optic nerve. […] The thickness of the outer nuclear layer was measured on each point. […] Histology and photoreceptor counting in mice were performed as previously described.
A custom rodent diet was formulated and irradiated (25 kGy) by Envigo RMS SARL (Gannat, France). Low dose (LD)-BIO203 (50 μg/g) and high dose (HD)-BIO203 (500 μg/g) were incorporated into Teklad Custom Research Diet 2016© pellets. […] The concentration of BIO203 in the customized pellets at the end of each batch was determined by HPLC MS/MS. […] We calculated that in the LD group, male mice weighing 31.63 g after 2 months of complementation consumed 4.16 g of pellets, and in the HD group, male mice weighing 34.11 g after 2 months of complementation consumed 4.11 g of pellets every day, which correspond to a daily dose of 6.04 ± 0.46 mg/kg for the LD-BIO203 pellets and 55.91 ± 2.93 mg/kg for the HD-BIO203 pellets. […]

Abca4−/− Rdh8−/− mice [4] = test: A2E quantification in eyes of Abca4−/− Rdh8−/− mice (HPLC-MS/MS); type: in vivo, mouse; conditions: 6 months
Text: To test the preventive/curative action of oral administration of BIO203 against retinal neurodegeneration, a total of 27 Pigmented Abca4^−/− Rdh8^−/− mice carrying the Rpe65-Leu450 mutation and the rd8 mutation in the Crb1 gene from Case Western Reserve University of eleven to twelve months of age were used. Three groups of 9 males received control chow (Teklad Custom Research Diet 2016© pellets) or chow containing LD-BIO203 or HD-BIO203 orally for 6 months. After 6 months of complementation, ERG was measured in both eyes. In the control group, two mice died during the period of complementation and one mouse during ERG measurement. In the HD-BIO203 group, one mouse died before the end of complementation, and 3 mice died just after anesthesia. All the mice that received LD-BIO203 were alive until the end of the complementation. One of them died during the photopic ERG measurement. Blood was collected by submandibular puncture in all mice before being euthanized. In each group, half of the eyes were removed for A2E and BIO203 measurements, and half of the eyes were used for histological analyses and photoreceptor layer quantification.
A2E quantification in eyes was performed using the HPLC-MS/MS method, which has been described previously.

IL-6 [5] = test: IL-6 mRNA expression induced by A2E (quantitative RT-PCR); type: cell-based, pig
Method: as §1

VEGF = VEGF mRNA expression induced by A2E (quantitative RT-PCR); type: cell-based, pig; conditions: BIO203 20 mM (so in the source); A2E 20 μM; porcine RPE cells; p < 0.001
Method: as §1

SMILES	lowest dose giving the maximal retinal neuroprotection and optimal preservation of visual functions [1] [mg/kg]	change of NF-κB transactivation induced by A2E (NF-κB) [%]	effect on IL-6 mRNA expression (IL-6 [2])	change of IL-8 mRNA expression induced by A2E (IL-8) [%]	thickness of the photoreceptor nuclear layer compared with LD or control pellets (Abca4−/− Rdh8−/− mice [3])	change of A2E concentration in the retinas compared with control pellets (Abca4−/− Rdh8−/− mice [4]; HD pellets, not significant, p = 0.407) [%]	amount of ocular A2E compared with control pellets (Abca4−/− Rdh8−/− mice [4]; LD pellets)	change of IL-6 mRNA expression induced by A2E (IL-6 [5]; BIO203 20 mM (so in the source), A2E 20 μM, porcine RPE cells, p < 0.001) [%]	effect on IL-6 expression on its own (without A2E) (IL-6 [5]; BIO203 alone, not statistically significant)	change of VEGF mRNA expression induced by A2E (VEGF) [%]
CC(=C/C=C/C(C)=C/C=C/C=C(C)/C=C/C=C(C)/C=C/C(=O)O)/C=C/C(=O)O [norbixin, 9′-cis-norbixin]	50	−73	significantly reduced	–	–	–	–	–	–	–
COC1CCCN(C(=O)/C=C/C(C)=C/C=C/C(C)=C/C=C/C=C(C)/C=C/C=C(C)\C=C\C(=O)O)C1 (stereo not shown) [BIO203]	–	–	–	−86.8	No difference	−21.7	did not differ significantly	−104.8	slightly inhibited	−84.8
